From US11312701B2, “Formylpyridine derivative having FGFR4 inhibitory activity, preparation method therefor and use thereof” (Abbisko Therapeutics Co., Ltd., priority 2017, dated 2022)

Columns and labels:
FGFR4 = FGFR4 (Homo sapiens, UniProt P22455); assay: FGFR4 Caliper Assay (in vitro biochemical kinase analysis); settings: Caliper mobility shift, 65 μM ATP, 30° C. 40 minutes; read-out: Enzymatic activity FGFR4 IC50
Method: I. In Vitro Biochemical Kinase Analysis of FGFR4
FGFR4 Caliper Assay was used in the present invention to determine the inhibitory activities • of the compounds against FGFR4. The specific experimental procedure was as follows: 1. The kinase reaction in the present invention was carried out in a 384-well plate, and […] of FGFR4, 65 μM of ATP and 1 μM of peptide (5 Fluo Ahx KKKKEEIYFFFG NH2) were respectively added into the following reaction system. • 2. A reaction system is a mixture solution of 50 mM HEPES, pH 7.5, 1 mM DTT, 0.02% Tween 20, 0.02% BSA, 0.6% DMSO, 10 mM beta glycerol phosphate and 10 μM sodium orthovanadate and 16 mM MgCl2. • 3. The reaction system was incubated at 30° C. for 40 minutes. • 4. The reaction was terminated by adding a stop solution (100 mM HEPES, pH 7.5, 5% DMSO, 0.1% Caliper coating reagent, 10 mM EDTA and 0.015% Brij35). • 5. The culture plate with the terminated kinase reaction was transferred to the Caliper LC 3000 workstation to read the data, the phosphorylated and unphosphorylated peptides were separated by using the Caliper microfluid migration shift technique, and the analyte was transferred by allowing a constant buffer flow through the chip, the migration of the substrate peptide was monitored by the labeled fluorescent signal, and the kinase activity was calculated by using the amount of the phosphate-based peptide formed. • 6. Finally, IC50 values were determined by non-linear regression analysis of percent inhibition at different compound concentrations. II. FGFR4 Cell Proliferation Experiment

[1] = test system: Huh7 hepatocellular carcinoma cells; assay: Cell Titer Glo (CTG) cell proliferation experiment; type: cell-based; settings: Homo sapiens, 72 h, HuH-7 cells, 3 days; for IC50: concentration leading to absolute half growth inhibition; for EC50: concentration leading to half maximal growth inhibition
Method: Cell Titer Glo (CTG) experiment was used in the present invention to evaluate the functional effects of the compounds on cell proliferation. Huh7 hepatocellular carcinoma cells (Catalog No. TChU182) from the Chinese Academy of Sciences cell bank were cultured in DMEM with high glucose (Gibco, cat. No. 1773536), 10% fetal bovine serum (Gibco, 10099-141) at 37° C., in a 5% CO2 incubator. Compound-mediated inhibition of cell proliferation/survival was assessed by quantification of cellular ATP levels using CTG reagent (Promega, #G7573). The specific experimental procedure was as follows: • 1. The cells were seeded into a tissue culture medium-treated 96-well plate (Costar #3904) at 3500 cells/well/90 μL of fresh medium; • 2. 10 μL of medium containing a compound concentration of 10 fold of its final test concentration was added; • 3. The dose effect as evaluated by a 5-fold serial dilution of the test compound, starting from 10 μM. • 4. After cells incubation for 3 days at 37° C. in a 5% CO2 atmosphere, the effect of the inhibitor on cell proliferation was quantified after adding 50 μL of CTG and testing with luminescence. • 5. The concentration of the compound (EC50) leading to half maximal growth inhibition and the concentration of compound (Absolute IC50) leading to absolute half growth inhibition were determined using a four-parameter curve fit in Graphpad Prism in a plate reader (M1000, Tecan).

Sequence of FGFR4 (P22455 22-802): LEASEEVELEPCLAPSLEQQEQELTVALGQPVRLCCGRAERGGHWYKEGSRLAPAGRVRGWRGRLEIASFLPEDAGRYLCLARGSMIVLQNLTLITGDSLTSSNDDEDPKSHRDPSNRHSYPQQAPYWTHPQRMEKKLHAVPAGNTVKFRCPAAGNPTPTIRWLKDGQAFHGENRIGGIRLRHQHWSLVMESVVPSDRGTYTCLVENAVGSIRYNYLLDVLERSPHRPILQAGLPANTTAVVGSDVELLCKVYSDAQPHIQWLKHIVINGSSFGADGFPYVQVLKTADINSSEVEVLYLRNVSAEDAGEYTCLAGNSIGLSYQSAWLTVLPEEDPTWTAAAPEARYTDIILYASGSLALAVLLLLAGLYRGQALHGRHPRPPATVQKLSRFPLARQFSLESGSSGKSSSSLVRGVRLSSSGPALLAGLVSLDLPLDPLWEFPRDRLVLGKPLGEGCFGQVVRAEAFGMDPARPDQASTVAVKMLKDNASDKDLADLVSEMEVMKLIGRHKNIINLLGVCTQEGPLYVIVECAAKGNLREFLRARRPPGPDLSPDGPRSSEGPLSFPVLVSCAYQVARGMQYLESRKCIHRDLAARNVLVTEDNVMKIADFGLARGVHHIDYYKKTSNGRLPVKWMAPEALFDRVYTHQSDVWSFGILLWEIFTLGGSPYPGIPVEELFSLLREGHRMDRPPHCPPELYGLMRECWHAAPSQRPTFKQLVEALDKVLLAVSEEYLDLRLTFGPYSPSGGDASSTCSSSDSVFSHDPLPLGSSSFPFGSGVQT

IC50 (FGFR4) | IC50 [1] | EC50 [1] | SMILES
0.002 µM | 0.0262 µM | 0.0083 µM | CN1CCN(Cc2ccc(N(C)C(=O)Nc3cc(NC4CC4)c(C#N)cn3)nc2C=O)C(=O)C1 [Example 1, 3-(5-cyano-4-(cyclopropylamino)pyridin-2-yl)-1-(6-formyl-5-((4-methyl-2-oxopiperazin-1-yl)methyl)pyridin-2-yl)-1-methylurea]
0.008 µM |  |  | CN1CCN(Cc2ccc(N(C)C(=O)Nc3cc(NCCF)c(C#N)cn3)nc2C=O)C(=O)C1 [Example 2, 3-(5-cyano-4-((2-fluoroethyl)amino)pyridin-2-yl)-1-(6-formyl-5-((4-methyl-2-oxopiperazin-1-yl)methyl)pyridin-2-yl)-1-methylurea]
0.0038 µM | 0.0774 µM | 0.0256 µM | CN1CCN(Cc2ccc(N(C)C(=O)Nc3cc(NCC4CC4)c(C#N)cn3)nc2C=O)C(=O)C1 [Example 4, 3-(5-cyano-4-((cyclopropylmethyl)amino)pyridin-2-yl)-1-(6-formyl-5-((4-methyl-2-oxopiperazin-1-yl)methyl)pyridin-2-yl)-1-methylurea]
0.0069 µM | 0.177 µM | 0.0822 µM | COC1(C)CN(c2cc(NC(=O)N(C)c3ccc(CN4CCN(C)CC4=O)c(C=O)n3)ncc2C#N)C1 [Example 11, 3-(5-cyano-4-(3-methoxy-3methylazetidin-1-yl)pyridin-2-yl)-1-(6-formyl-5-((4-methyl-2-oxopiperazin-1-yl)methyl)pyridin-2-yl)-1-methylurea]
0.0057 µM | 0.0574 µM | 0.0201 µM | CN1CCN(Cc2ccc(N(C)C(=O)Nc3cc(NC4CCOC4)c(C#N)cn3)nc2C=O)C(=O)C1 (centres unmarked) [Example 14, 3-(5-cyano-4-((tetrahydrofuran-3-yl)amino)pyridin-2-yl)-1-(6-formyl-5-((4-methyl-2-oxopiperazin-1-yl)methyl)pyridin-2-yl)-1-methylurea]
0.0065 µM | 0.0849 µM | 0.0381 µM | COC1CCN(c2cc(NC(=O)N(C)c3ccc(CN4CCN(C)CC4=O)c(C=O)n3)ncc2C#N)C1 (centres unmarked) [Example 17, 3-(5-cyano-4-(3-methoxypyrrolidin-1-yl)pyridin-2-yl)-1-(6-formyl-5-((4-methyl-2-oxopiperazin-1-yl)methyl)pyridin-2-yl)-1-methylurea]
0.008 µM | 0.0554 µM | 0.0227 µM | CN1CCN(Cc2ccc(N(C)C(=O)Nc3cc(NCC4CCCO4)c(C#N)cn3)nc2C=O)C(=O)C1 (centres unmarked) [Example 21, 3-(5-cyano-4-(((tetrahydrofuran-2-yl)methyl)amino)pyridin-2-yl)-1-(6-formyl-5-((4-methyl-2-oxopiperazin-1-yl)methyl)pyridin-2-yl)-1-methylurea]
0.0522 µM | 1.8 µM | 1.08 µM | CN1CCN(Cc2ccc(N(C)C(=O)Nc3cc(N4CCOCC4)c(C#N)cn3)nc2C=O)C(=O)C1 [Example 24, 3-(5-cyano-4-morpholinopyridin-2-yl)-1-(6-formyl-5-((4-methyl-2-oxopiperazin-1-yl)methyl)pyridin-2-yl)-1-methylurea]
 | 0.207 µM | 0.0768 µM | CN1CCN(Cc2ccc(N(C)C(=O)Nc3cc(N4CCC5(CCOC5)C4)c(C#N)cn3)nc2C=O)C(=O)C1 (centres unmarked) [Example 30, 3-(5-cyano-4-(2-oxa-7-azaspiro[4.4]nonan-7-yl)pyridin-2-yl)-1-(6-formyl-5-((4-methyl-2-oxopiperazin-1-yl)methyl)pyridin-2-yl)-1-methylurea]

Further lines, the molecule ahead of its results:

SMILES | IC50 (FGFR4) | IC50 [1] | EC50 [1]
CN1CCN(Cc2ccc(N(C)C(=O)Nc3cc(NC4CC(F)(F)C4)c(C#N)cn3)nc2C=O)C(=O)C1 [Example 7, 3-(5-cyano-4-((3,3-difluorocyclobutyl)amino)pyridin-2-yl)-1-(6-formyl-5-((4-methyl-2-oxopiperazin-1-yl)methyl)pyridin-2-yl)-1-methylurea] | 0.0028 µM | 0.0632 µM | 0.0204 µM
COC1CC(Nc2cc(NC(=O)N(C)c3ccc(CN4CCN(C)CC4=O)c(C=O)n3)ncc2C#N)C1 (centres unmarked) [Example 8, 3-(5-cyano-4-((3-methoxycyclobutyl)amino)pyridin-2-yl)-1-(6-formyl-5-((4-methyl-2-oxopiperazin-1-yl)methyl)pyridin-2-yl)-1-methylurea] | 0.0058 µM |  | 
CN1CCN(Cc2ccc(N(C)C(=O)Nc3cc(NC4CCC(F)(F)C4)c(C#N)cn3)nc2C=O)C(=O)C1 (centres unmarked) [Example 15, 3-(5-cyano-4-((3,3-difluorocyclopentyl)amino)pyridin-2-yl)-1-(6-formyl-5-((4-methyl-2-oxopiperazin-1-yl)methyl)pyridin-2-yl)-1-methylurea] | 0.0023 µM | 0.0486 µM | 0.0193 µM
CC(C)Sc1cc(NC(=O)N(C)c2ccc(CN3CCN(C)CC3=O)c(C=O)n2)ncc1C#N [Example 34, 3-(5-cyano-4-(isopropylthio)pyridin-2-yl)-1-(6-formyl-5-((4-methyl-2-oxopiperazin-1-yl)methyl)pyridin-2-yl)-1-methylurea] | 0.0029 µM | 0.118 µM | 0.0408 µM
COCCOc1cc(NC(=O)N(C)c2ccc(CN3CCN(C)CC3=O)c(C=O)n2)ncc1C#N [Example 36, 3-(5-cyano-4-(2-methoxyethoxy)pyridin-2-yl)-1-(6-formyl-5-((4-methyl-2-oxopiperazin-1-yl)methyl)pyridin-2-yl)-1-methylurea] | 0.0171 µM | 0.41 µM | 0.191 µM
CN1CCN(Cc2ccc(N(C)C(=O)Nc3cc(OCC4CC4)c(C#N)cn3)nc2C=O)C(=O)C1 [Example 39, 3-(5-cyano-4-(cyclopropylmethoxy)pyridin-2-yl)-1-(6-formyl-5-((4-methyl-2-oxopiperazin-1-yl)methyl)pyridin-2-yl)-1-methylurea] | 0.0034 µM | 0.101 µM | 0.0488 µM
CCN(C(=O)Nc1cc(NC2CC2)c(C#N)cn1)c1ccc(CN2CCN(C)CC2=O)c(C=O)n1 [Example 51, 3-(5-cyano-4-(cyclopropylamino)pyridin-2-yl)-1-ethyl-1-(6-formyl-5-((4-methyl-2-oxopiperazin-1-yl)methyl)pyridin-2-yl)urea] | 0.0014 µM | 0.065 µM | 0.027 µM
N#Cc1cnc(NC(=O)C2(c3cccc(C=O)n3)CC2)cc1NC1CC1 [Example 52, N-(5-cyano-4-(cyclopropylamino)pyridin-2-yl)-1-(6-formylpyridin-2-yl)cyclopropane-1-carboxamide] | 0.0163 µM |  | 
CN1CCN(Cc2ccc(N(C)C(=O)Nc3cc(NC4CC4)c(I)cn3)nc2C=O)C(=O)C1 [Example 56, 3-(4-(cyclopropylamino)-5-iodopyridin-2-yl)-1-(6-formyl-5-((4-methyl-2-oxopiperazin-1-yl)methyl)pyridin-2-yl)-1-methylurea] | 0.0081 µM | 0.223 µM | 0.093 µM
